Assay [1] deals with T1, Recombinant full-length human IDO1 (Homo sapiens, UniProt P14902).
T1 construct: Recombinant full-length human IDO1 with a N-terminal hexahistidine tag; hexahistidine (His6) (N); made in house; host or cells: E. coli
Description: IDO1 enzymatic assay (NFK quantified by LCMS). In kind it is biochemical. The following applies: 2 nM enzyme, 5 μM L-tryptophan, pH6.5, 30 minutes pre-incubation at RT; mean values when measured multiple times; read-out: hIDO activity (IC50 in nM). The method in brief: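 His-tagged human IDO1 (2 nM) in pH 6.5 phosphate buffer with ascorbate, methylene blue and catalase was preincubated with compound (10 μM–0.5 nM, 0.6% DMSO) for 30 min at RT. The reaction then ran with 5 μM L-Trp for 30 min. NFK was measured by LCMS against a d5-Trp standard, and IC50 was obtained by four-parameter fit.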

Assay [2] addresses T2, Recombinant human TDO comprising amino acids 19-407 (Homo sapiens, UniProt P48775).
T2 construct: Recombinant human TDO comprising amino acids 19-407 with a N-terminal hexahistidine tag; hexahistidine (His6) (N); made in house; host or cells: E. coli
In words: TDO2 enzymatic assay (NFK quantified by LCMS). In kind it is biochemical. The note with it: 15 nM enzyme, 200 μM L-tryptophan, pH7, 30 minutes pre-incubation at RT; mean values when measured multiple times; read-out: hTDO activity (IC50 in nM). The method in brief:
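NFK formed over 30 min at RT from 200 μM L-tryptophan was measured by LCMS, normalized to d5-tryptophan, after compound (0.5 nM–10 μM, duplicates, 0.6% DMSO) was preincubated 30 min with 15 nM recombinant His-tagged TDO 19-407 in phosphate buffer pH 7. IC50 from four-parameter logistic fit; repeats averaged.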

T1 sequence (P14902 whole entry): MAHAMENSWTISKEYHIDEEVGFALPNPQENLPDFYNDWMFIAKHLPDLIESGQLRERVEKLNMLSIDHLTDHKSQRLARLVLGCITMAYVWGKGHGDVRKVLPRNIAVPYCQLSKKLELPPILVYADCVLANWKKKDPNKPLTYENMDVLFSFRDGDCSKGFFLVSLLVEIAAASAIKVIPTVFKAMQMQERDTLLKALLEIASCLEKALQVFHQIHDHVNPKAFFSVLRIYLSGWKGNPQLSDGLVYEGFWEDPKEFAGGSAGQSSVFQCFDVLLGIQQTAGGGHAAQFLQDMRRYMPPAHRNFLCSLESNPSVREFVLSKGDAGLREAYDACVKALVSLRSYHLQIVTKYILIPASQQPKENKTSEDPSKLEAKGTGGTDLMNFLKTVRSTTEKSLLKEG
T2 sequence (P48775 19-406 limits assumed): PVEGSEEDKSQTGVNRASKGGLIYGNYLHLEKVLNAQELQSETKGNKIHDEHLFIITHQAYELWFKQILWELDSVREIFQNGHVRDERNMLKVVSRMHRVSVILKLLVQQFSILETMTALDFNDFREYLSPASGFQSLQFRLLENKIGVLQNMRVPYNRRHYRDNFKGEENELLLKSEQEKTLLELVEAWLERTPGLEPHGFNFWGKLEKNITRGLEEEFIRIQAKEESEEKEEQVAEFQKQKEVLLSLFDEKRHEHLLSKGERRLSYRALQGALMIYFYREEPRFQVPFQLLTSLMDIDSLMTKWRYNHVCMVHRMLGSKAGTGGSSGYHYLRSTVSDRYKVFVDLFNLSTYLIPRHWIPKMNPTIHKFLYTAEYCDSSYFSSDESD

The term IC50 denotes the concentration that gives 50% inhibition. For the compound `CCOC(=O)COc1ccc(-n2cc(C(O)c3c(C4CC4)sc4cncn34)nn2)cc1` (racemic) [Example 231, rac-(4-{4-[(2-Cyclopropyl-imidazo[5,1-b]thiazol-3-yl)-hydroxy-methyl]-[1,2,3]triazol-1-yl}-phenoxy)-acetic acid ethyl ester], the half-inhibitory concentration (IC50) in assay [1] was 22.3 nM; in assay [2], more than 10200 nM.

As for `COc1ccc(-n2cc(C(O)c3c(C)sc4cncn34)nn2)cc1` (racemic) [Example 261, rac-[1-(4-Methoxy-phenyl)-1H-[1,2,3]triazol-4-yl]-(2-methyl-imidazo[5,1-b]thiazol-3-yl)-methanol], the IC50 in assay [1] is 51.7 nM; in assay [2], more than 10200 nM.

On to `CC(C)Oc1ncc(-n2cc(C(O)c3c(C4CC4)sc4cncn34)nn2)cc1Cl` (racemic) [Example 73, rac-[1-(5-Chloro-6-isopropoxy-pyridin-3-yl)-1H-[1,2,3]triazol-4-yl]-(2-cyclopropyl-imidazo[5,1-b]thiazol-3-yl)-methanol], for which the IC50 in assay [1] was 36.1 nM; in assay [2], more than 10200 nM.

For the compound `CCc1sc2cncn2c1C(O)c1cn(-c2ccc(S(=O)(=O)N3CCCC3)cc2)nn1` (racemic) [Example 242, rac-(2-Ethyl-imidazo[5,1-b]thiazol-3-yl)-{1-[4-(pyrrolidine-1-sulfonyl)-phenyl]-1H-[1,2,3]triazol-4-yl}-methanol], the IC50 in assay [1] was 139 nM; in assay [2], more than 10200 nM.

For the compound `C=CCNC(=O)c1ccc(-n2cc(C(O)c3c(C4CC4)sc4cncn34)nn2)cc1` (racemic) [Example 193, rac-N-Allyl-4-{4-[(2-cyclopropyl-imidazo[5,1-b]thiazol-3-yl)-hydroxy-methyl]-[1,2,3]triazol-1-yl}-benzamide], the IC50 in assay [1] was 9.02 nM; in assay [2], more than 10200 nM.

`OC(c1cccc(-c2ccccc2)c1)c1c(C2CC2)sc2cncn12` (racemic) [Example 153, rac-Biphenyl-3-yl-(2-cyclopropyl-imidazo[5,1-b]thiazol-3-yl)-methanol]: the IC50 in assay [1] is 2320 nM; in assay [2], more than 10200 nM.

Consider `OC(c1ccc(-c2ccc(C(F)(F)F)cc2)s1)c1c(C2CC2)sc2cncn12` (racemic) [Example 162, rac-(2-Cyclopropyl-imidazo[5,1-b]thiazol-3-yl)-[5-(4-trifluoromethyl-phenyl)-thiophen-2-yl]-methanol], for which the IC50 in assay [1] was 1250 nM; in assay [2], more than 10200 nM.

In the case of `O[C@@H](c1cn(-c2ccc(OCCC3(O)CC3)cc2)nn1)c1c(C2CC2)sc2cncn12` [Example 142a, 1-[2-(4-{4-[(R)-(2-Cyclopropyl-imidazo[5,1-b]thiazol-3-yl)-hydroxy-methyl]-[1,2,3]triazol-1-yl}-phenoxy)-ethyl]-cyclopropanol], the IC50 in assay [1] is 9.51 nM; in assay [2], more than 10200 nM.

On to `COc1ccc(-n2cc(C(O)c3c(C=C(C)C)sc4cncn34)nn2)cc1` (racemic) [Example 262, rac-[1-(4-Methoxy-phenyl)-1H-[1,2,3]triazol-4-yl]-[2-(2-methyl-propenyl)-imidazo[5,1-b]thiazol-3-yl]-methanol], for which the IC50 in assay [1] was 83.2 nM; in assay [2], more than 10200 nM.

On to `NS(=O)(=O)CCCOc1ccc(-n2cc(C(O)c3c(C4CC4)sc4cncn34)nn2)cc1` (racemic) [Example 206, rac-3-(4-{4-[(2-Cyclopropyl-imidazo[5,1-b]thiazol-3-yl)-hydroxy-methyl]-[1,2,3]triazol-1-yl}-phenoxy)-propane-1-sulfonic acid amide], for which the IC50 in assay [1] is 7.11 nM; in assay [2], more than 10200 nM.

For `OC(c1cnn(-c2ccc3c(c2)OCCO3)c1)c1c(C2CC2)sc2cncn12` (racemic) [Example 222, rac-(2-Cyclopropyl-imidazo[5,1-b]thiazol-3-yl)-[1-(2,3-dihydro-benzo[1,4]dioxin-6-yl)-1H-pyrazol-4-yl]-methanol], the results for the IC50 in assay [1] and in assay [2] were 97.2 nM and 7880 nM, respectively.

For the compound `CCN(C)C(=O)c1ccc(-n2cc(C(O)c3c(C4CC4)sc4cncn34)nn2)cc1` (racemic) [Example 191, rac-4-{4-[(2-Cyclopropyl-imidazo[5,1-b]thiazol-3-yl)-hydroxy-methyl]-[1,2,3]triazol-1-yl}-N-ethyl-N-methyl-benzamide], the IC50 in assay [1] is 109 nM; in assay [2] it was more than 10200 nM.

On to `COc1ccc(-n2nnc(C(O)c3c(C4CC4)sc4cncn34)c2C)c(C)c1` (racemic) [Example 326, rac-(2-Cyclopropyl-imidazo[5,1-b]thiazol-3-yl)-[1-(4-methoxy-2-methyl-phenyl)-5-methyl-1H-[1,2,3]triazol-4-yl]-methanol], for which the IC50 is 16.9 nM in assay [1] and 9520 nM in assay [2].

Regarding `CCc1sc2cncn2c1C(O)c1cn(-c2ccc(NC(N)=O)cc2)nn1` (racemic) [Example 131, rac-(4-{4-[(2-Ethyl-imidazo[5,1-b]thiazol-3-yl)-hydroxy-methyl]-[1,2,3]triazol-1-yl}-phenyl)-urea], the results for the IC50 in assay [1] and in assay [2] were 22.3 nM and 2150 nM, respectively.

Turning to `CC(=O)c1ccc(-n2cc(C(O)c3c(C4CC4)sc4cncn34)nn2)cc1` (racemic) [Example 10, rac-1-(4-{4-[(2-Cyclopropyl-imidazo[5,1-b]thiazol-3-yl)-hydroxy-methyl]-[1,2,3]triazol-1-yl}-phenyl)-ethanone], the IC50 is 18.4 nM in assay [1] and more than 10200 nM in assay [2].

Take `N#Cc1ccc(-c2ccc(C(O)c3c(C4CC4)sc4cncn34)s2)cc1` (racemic) [Example 173, rac-4-{5-[(2-Cyclopropyl-imidazo[5,1-b]thiazol-3-yl)-hydroxy-methyl]-thiophen-2-yl}-benzonitrile]: the IC50 in assay [1] is 732 nM; in assay [2] it was more than 10200 nM.

Take `CCOc1ncc(-n2cc(C(O)c3c(C4CC4)sc4cncn34)nn2)cc1C(F)(F)F` (racemic) [Example 76, rac-(2-Cyclopropyl-imidazo[5,1-b]thiazol-3-yl)-[1-(6-ethoxy-5-trifluoromethyl-pyridin-3-yl)-1H-[1,2,3]triazol-4-yl]-methanol]: the values for the IC50 in assay [1] and in assay [2] were 363 nM and more than 10200 nM, respectively.

With `COc1ccccc1-n1cc(C(O)c2c(C3CC3)sc3cncn23)nn1` (racemic) [Example 7, rac-(2-Cyclopropyl-imidazo[5,1-b]thiazol-3-yl)-[1-(2-methoxy-phenyl)-1H-[1,2,3]triazol-4-yl]-methanol], the IC50 in assay [1] was 50.9 nM; in assay [2] it was more than 10200 nM.

Consider `OC(c1ccc(-c2ccccc2)cc1)c1c(C2CC2)sc2cncn12` (racemic) [Example 152, rac-Biphenyl-4-yl-(2-cyclopropyl-imidazo[5,1-b]thiazol-3-yl)-methanol], for which the IC50 in assay [1] is 184 nM; in assay [2], more than 10200 nM.

On to `Oc1ccc(-n2cc(C(O)c3c(C4CC4)sc4cncn34)nn2)cc1C(F)(F)F` (racemic) [Example 209, rac-4-{4-[(2-Cyclopropyl-imidazo[5,1-b]thiazol-3-yl)-hydroxy-methyl]-[1,2,3]triazol-1-yl}-2-trifluoromethyl-phenol], for which the IC50 was 22.1 nM in assay [1] and more than 10200 nM in assay [2].

Turning to `OC(c1cn(-c2ccc(OCCN3CCCCC3)cc2)nn1)c1c(C2CC2)sc2cncn12` (racemic) [Example 89, rac-(2-Cyclopropyl-imidazo[5,1-b]thiazol-3-yl)-{1-[4-(2-piperidin-1-yl-ethoxy)-phenyl]-1H-[1,2,3]triazol-4-yl}-methanol], the values for the IC50 in assay [1] and in assay [2] were 204 nM and more than 10200 nM, respectively.

For the compound `CC(C)(O)COc1ccc(-n2cc([C@H](O)c3c(C4CC4)sc4cncn34)nn2)cc1` [Example 139a, 1-(4-{4-[(R)-(2-Cyclopropyl-imidazo[5,1-b]thiazol-3-yl)-hydroxy-methyl]-[1,2,3]triazol-1-yl}-phenoxy)-2-methyl-propan-2-ol], the IC50 in assay [1] was 5.44 nM; in assay [2], more than 10200 nM.

On to `COc1ccc(-n2cc(C(O)c3c(C4CC4)sc4cncn34)nn2)cc1F` (racemic) [Example 327, rac-(2-Cyclopropyl-imidazo[5,1-b]thiazol-3-yl)-[1-(3-fluoro-4-methoxy-phenyl)-1H-[1,2,3]triazol-4-yl]-methanol], for which the IC50 in assay [1] was 4.29 nM; in assay [2], more than 10200 nM.

For the compound `OC(c1cn(-c2ccc(N3CCOCC3)cc2)nn1)c1c(C2CC2)sc2cncn12` (racemic) [Example 38, rac-(2-Cyclopropyl-imidazo[5,1-b]thiazol-3-yl)-[1-(4-morpholin-4-yl-phenyl)-1H-[1,2,3]triazol-4-yl]-methanol], the IC50 was 72.7 nM in assay [1] and more than 10200 nM in assay [2].

Consider `Cc1cccc(-n2cc(C(O)c3c(C4CC4)sc4cncn34)nn2)c1` (racemic) [Example 28, rac-(2-Cyclopropyl-imidazo[5,1-b]thiazol-3-yl)-(1-m-tolyl-1H-[1,2,3]triazol-4-yl)-methanol], for which the IC50 in assay [1] was 28.8 nM; in assay [2], more than 10200 nM.

As for `COc1ccc(-n2cc(C(O)c3c(-c4ccccc4F)sc4cncn34)nn2)cc1` (racemic) [Example 287, rac-[2-(2-Fluoro-phenyl)-imidazo[5,1-b]thiazol-3-yl]-[1-(4-methoxy-phenyl)-1H-[1,2,3]triazol-4-yl]-methanol], the figures for the IC50 in assay [1] and in assay [2] were 88.8 nM and 8670 nM, respectively.

The record behind these values is patent US20200405696A1, “INHIBITORS OF INDOLEAMINE 2,3-DIOXYGENASE AND/OR TRYPTOPHAN 2,3-DIOXYGENASE” (IDORSIA PHARMACEUTICALS LTD, priority 2018, published 2020).
